{"source": "patent US20050090480A1", "about": "“Use of selected amino acid-zinc complexes as anti-malarials” (Council of Scientific & Industrial Research, priority 2003, published 2005)", "key": {"[1]": {"system": "chloroquine-resistant (W2Mef) strain of P. falciparum", "procedure": "The W2Mef strain was used for these experiments. […] The following was the protocol for present experiment.\nIn the present study, Chloroquine-sensitive (3D7) strain and chloroquine-resistant (W2Mef) strain were used. The cultures were maintained in vitro using culture media consisting of standard RPMI-1640 supplemented with 10% heat inactivated Human Type O^+ Serum, 3.6% NaHCO3 at a hematocrit of 4%. All the assays were carried out in 96 well, flat bottom microtitre plates. For the synchronization of cultures, 5% sorbitol was used. The growth of the parasite was measured with incorporation of Hypoxanthine. A 200 μl volume of the culture parasite was added to each well initially. Different antimalarial compounds at varied concentrations were added to the wells. All the compounds were tested on both chloroquine-sensitive and chloroquine resistant strains. The plates were then placed in an airtight chamber and flushed with the gas mixture (5% CO2, 5% O2 and 90% N2). The plates were finally stored in an incubator at 37° C. for 24 hours.\nAt the end of the incubation period, 5 μl of diluted ^3H-Hypoxanthine—to a final concentration of 1 μCi—was added to each well. The plates were then returned to the airtight chamber and then flushed with the above gas mixture and incubated for an additional 24 hours. The plates were then stored at −70° C. until required for detection of incorporated radioactivity. When necessary, the plates were thawed and the cells were harvested onto filter-mats. These filter-mats were then dried and sealed."}, "[2]": {"system": "3D7 strain of P. falciparum", "conditions": "light microscope (FIG. 3)", "procedure": "In this experiment, slides were prepared, stained with Giemsa and examined under a light microscope. Representative pictures are show in FIG. 3."}, "P. berghei": {"system": "P. berghei", "conditions": "about 1 mg to 50 mg/kg", "description": "BALB/c mice (4-6 weeks old) were infected with 10^5 P. berghei parasites/mouse. […] After four days of infection, various concentrations of compound, at the doses of 10 mg/kg (Group 2) and 20 mg/kg (Group 3) body weight was injected to the mice. The control group (Group 1) indicates the group of mice infected with the parasite, but without any drug (i.e. vehicle only). Group 4 represents a group of infected mice treated with Pyrimethamine (at 20 mg/kg body weight) using an identical treatment regimen. Each group contained ten mice and the parasitemia levels—obtained from blood smears—are given as a percentage of that obtained in untreated mice (FIG. 4)."}, "P. falciparum": {"system": "P. falciparum", "assay": "P. falciparum in vitro culture, parasitemia by Giemsa stained smear after 48 hrs", "assay_type": "cell-based, Plasmodium falciparum", "conditions": "for inhibition of growth of P. falciparum: 10 μM concentration, 48 hrs incubation at 37° C.", "description": "Selective enrichment of activity was monitored at every step using P. falciparum culture for in vitro studies.\nZinc complex of L-proline was dissolved in normal saline and filter sterilized. The compound was added to the parasite culture at different concentrations ranging from 1- 10 μM. The compound was tested at the indicated doses using the experimental protocol as described below:\nProtocol for Testing the Effect of Drug on P. falciparum for In Vitro Studios\nThe P. falciparum cultures were synchronized at first by sorbitol treatment. The compound of various concentrations was added to the 200 μl of synchronized P. falciparum culture (1% parasitemia). The parasitemia was checked by making Giemsa stained smear after 48 hrs of incubation at 37° C."}, "Plasmodium yeoeli": {"system": "Plasmodium yeoeli", "source_text": "For these experiments, the mouse malaria parasite Plasmodium yeoeli was used as this strain is considered to be closer to human parasite, P. falciparum. Groups of eight mice each were infected with 10^6 parasites/mouse through an intra-peritoneal injection. […] The drug was given once a day for a total period of six days. The mice were then left alone for an additional period of three days, after which the number of survivors were counted (i.e. at […] after infection). The results are shown here in FIG. 5. Group 1 represents a control group of uninfected mice, with no drug given. Group 3 represents the group of infected mice, again with no drug given (i.e. vehicle only)."}, "W2Mef": {"system": "W2Mef", "conditions": "FIG. 8"}}}
{"molecule": "CCN(CC)CCCC(C)Nc1ccnc2cc(Cl)ccc12", "note": "(centres unmarked) [chloroquine, Chloroquine, reference compound]", "values": [{"measurement": "increase in the IC50 value for chloroquine, W2Mef compared with 3D7 strain", "setting": "[1]; FIG. 6", "result": "near sevenfold increase"}]}
{"molecule": "Zinc complex of L-proline [PIZ2]", "values": [{"measurement": "effect on the parasite in stained slides", "setting": "[2]", "result": "significant disintegration of the parasite"}, {"measurement": "potency against chloroquine-sensitive versus chloroquine-resistant strain", "setting": "[1]; dose response analysis, 3D7 and W2Mef (FIG. 7)", "result": "remained identical"}, {"measurement": "activity against the chloroquine resistant strain-W2Mef", "setting": "[1]; preliminary experiments and dose response analysis", "result": "active"}, {"measurement": "inhibits growth of P. berghei", "setting": "P. berghei", "result": "about 80%"}, {"measurement": "inhibition of growth of P. falciparum", "setting": "P. falciparum", "result": "> 80", "unit": "%"}, {"measurement": "inhibits growth of P. facliparum", "setting": "P. falciparum; about 5 μM to 10 μM", "result": "about 100%"}, {"measurement": "inhibits growth of P. yeoeli", "setting": "Plasmodium yeoeli; about 1 mg to 50 mg/Kg", "result": "about 90%"}, {"measurement": "percentage of survivors", "setting": "Plasmodium yeoeli; oral 20 mg/kg body weight once a day for six days, counted twelve days after infection", "result": 88, "unit": "%"}, {"measurement": "manner of action on W2Mef", "setting": "W2Mef", "result": "direct killing"}]}
{"molecule": "Zinc complexes of L-histidine [Zinc complex of L-histidine]", "values": [{"measurement": "inhibition of growth of P. falciparum", "setting": "P. falciparum", "result": "~85", "unit": "%"}]}
